Values quoted from earlier work, collected in patent publication US20020137787A1, “Prevention or treatment of complications related to non-insulin dependent diabetes mellitus or type 2 diabetes mellitus” (priority 2001, published 2002).
Read-outs that look alike come from different tables or passages of the source.

What was measured:
[1] = patients taking Clozapine

| SMILES | effect on body weight [1] | effect on body weight (overweight depressed patients) | effects on blood glucose and lipid profiles (reported) |
| --- | --- | --- | --- |
| CN1CCN(C2=Nc3cc(Cl)ccc3Nc3ccccc32)CC1 [Clozapine] | increased weight |  |  |
| CNCCC(Oc1ccc(C(F)(F)F)cc1)c1ccccc1 (stereo not drawn) [Fluoxetine] |  | weight loss | positive effects |
